Experiment [1] concerns CD28-dependent T cell growth. Briefly: Mouse T cell proliferation stimulated with anti-CD28 antibody and PMA (tritiumthymidine uptake). It is filed as cell-based. As for the experimental part: The spleen was aseptically isolated from 6-7-week-old male BALB/c mice (CHARLES RIVER LABORATORIES JAPAN, INC.), and splenocyte suspension was prepared using RPMI1640 medium (manufactured by Sigma-Aldrich Ltd.). After hemolysis by a hypotonic treatment using a mixed solution of 0.83% aqueous ammonium chloride and Tris-HCl buffer (pH 7.65) at 9:1, a T cell concentrated fraction was obtained using a T cell concentrated column (manufactured by R&D systems). A cell suspension prepared using RPMI1640 medium containing 10% fetal calf serum (FCS, manufactured by Sigma-Aldrich Ltd.) was added to a flat-bottomed 96 well microtest plate (manufactured by Becton, Dickinson and Company) at 5×10^5 cells/well. Furthermore, a test compound diluted with a medium to the final concentration of 1-10000 nmol/L, 10 ng/mL PMA (manufactured by Sigma-Aldrich Ltd.) and 250 ng/mL anti-CD28 antibody (manufactured by BD pharmingen) were added, and the mixture was cultured under the conditions of 37° C., 5% carbon dioxide, 95% air for 20 hr. After the completion of culture, tritiumthymidine (specific activity: […], manufactured by MP Biochemicals) was added at 18.5 kBq/well, and the mixture was further cultured for 4 hr. Then, the cells were recovered in a glass fiber filter using a cell harvester (manufactured by Molecular Devices Corp.), the radioactivity taken into the cells was measured using a plate scintillation counter (microbeta 1460, manufactured by PerkinElmer), based on which the mouse T cell growth induced by stimulation with PMA and anti-CD28 antibody was measured. To be specific, suppressing rate (%)=(1−(radioactivity (cpm) of well added with test compound)/(radioactivity (cpm) of well without addition of test compound))×100 was calculated from the average amount of tritiumthymidine uptake (cpm) of T cells in each well added with various concentrations of test compound. In addition, based on the dose response curve obtained by plotting the average tritiumthymidine uptake amount (cpm) or suppressing rate on the vertical axis and the concentration on the transverse axis, the concentration of the compound (IC50) suppressing the value to 50% of that of the control group was determined by nonlinear regression.

Experiment [2] has as its system TYPE II Collagen-Induced Arthritis in DBA/1J Mouse. Briefly: Type II collagen-induced arthritis in DBA/1J mouse. It is filed as in vivo. The note with it: 840 h, 3 mg/kg oral, 2 weeks from booster, average arthritis score at 35 days after primary immunization, P <0.05, read-out: suppressing rate (%) of arthritis score. On the procedure:
Bovine Type II collagen (purchased from collagen technical workshop) (100-200 μg) was mixed with complete Freund's adjuvant (manufactured by Sigma-Aldrich Ltd.) containing killed tuberculosis H37Ra. Using the resulting emulsion, 6 to 7-week-old male DBA/1J mice (CHARLES RIVER LABORATORIES JAPAN, INC.) were subcutaneously immunized at the tail root twice at 3 week intervals, whereby arthritis was developed. A test compound was suspended or dissolved in 0.5% carboxymethylcellulose (manufactured by Sigma-Aldrich Ltd.), and repetitively administered orally at a dose of 0.1-30 mg/kg body weight using an oral gavage needle for 2 weeks from the day of booster. As to this model, the symptoms of arthritis of four limbs were evaluated based on the following judgment criteria using the scores of from 0 to 4. The arthritis score of each mouse was shown by the total of the scores of four limbs (maximum: 16 points).
As regards the arthritis score, each group (n=5-6) was evaluated using an average value and mean error, with a group administered only with a vehicle being control, and Mann-Whitney U test was used for statistical analysis, wherein p value of 0.05 or below was determined to be significant. In the following, the suppressive action of the compound of the present invention on mouse collagen induced arthritis is shown by the suppressing rate (%) (1−(average arthritis score of compound administration group)/(average arthritis score of control group)×100) calculated from the average arthritis score at 35 days after the primary immunization.

Experiment [3] relates to Biphasic Auricular Edema in Egg Albumin-Induced Mouse. Briefly: Egg albumin-induced mouse biphasic auricular edema. The class given is in vivo. On the procedure:
Using saline (0.5 ml) containing egg albumin (10 μg, manufactured by Sigma-Aldrich Ltd.) and 1 mg of aluminum hydroxide gel, 6 to 7-week-old male BALB/c mice (CHARLES RIVER LABORATORIES JAPAN, INC.) were intraperitoneally immunized. Two weeks later, egg albumin (1.25 μg) was intradermally injected into the auricle of the mice for challenge, whereby biphasic auricular edema was induced 1 hr and 24 hr after the challenge. The compound of the present invention or a pharmaceutically acceptable salt thereof was suspended or dissolved in 0.5% carboxymethylcellulose, and repetitively administered orally at a dose of 0.01-30 mg/kg body weight for 3 days, from 2 days before the antigen challenge to the day of challenge, using an oral gavage needle. As for this model, the thickness of the auricle of the mouse was measured using a dial gauge (manufactured by Ozaki MFG. Co. Ltd.) and used as an index of auricular edema. As regards the thickness of the auricle, each group (n=8) was evaluated using an average value and mean error, with a group administered only with a vehicle being control, and t-test was used for statistical analysis, wherein p value of 0.05 or below was determined to be significant.

Experiment [4] relates to Mouse Graft-Versus-Host Reaction (GvHR). Briefly: Mouse graft-versus-host reaction (GvHR). It is filed as in vivo. The following applies: 30 mg/kg oral for 28 days from splenocyte injection; P <0.05 vs vehicle. On the procedure:
Cyclophosphamide (manufactured by Shionogi & Co., Ltd.) is administered to male BDF1 recipient mouse (8-week-old, CHARLES RIVER LABORATORIES JAPAN, INC.) at a dose of 300 mg/kg from the tail vein as a pretreatment at 24 hr prior to injection of spleen cells. The spleen was aseptically isolated from male C57BL/6 donor mouse (8-week-old, CHARLES RIVER LABORATORIES JAPAN, INC.), minced in RPMI1640 medium (manufactured by Sigma-Aldrich Ltd.), and passed through a stainless mesh to give a splenocyte single cell suspension. After removal of red blood cells by a hypotonic treatment using a mixed solution of 0.83% aqueous ammonium chloride and Tris-HCl buffer (pH 7.65) at 9:1, splenocytes were washed and suspended in physiological saline to give a splenocyte suspension. The prepared cells were injected at 1×10^8 cells/mouse into the tail vein to induce acute GvHR. The compound of the present invention or a pharmaceutically acceptable salt thereof was suspended or dissolved in 0.5% carboxymethylcellulose, and repetitively administered orally at a dose of 3-30 mg/kg body weight for 28 days from the day of splenocyte injection, and the influence on the survival time was evaluated. After induction of acute GvHR, the survival of each individual was determined every day, and the day of confirmed death was taken as the survival time of each individual. As for the survival time, log-rank test analysis was performed using the group administered with vehicle alone as a control, and the multiplicity was adjusted by the Holm's method, wherein p value of 0.05 or below was determined to be significant.

The subject of experiment [5] is Mouse Skin Allograft Survival. Briefly: Mouse skin allograft survival. The note with it: for median survival time of skin graft: vehicle 9.5. It is filed as in vivo. On the procedure: A tail skin graft (4×7 mm) of 5- to 7-week-old male AKR mouse (KYUDO Co. Ltd. was) was transplanted on the back of 5- to 7-week-old male C3H mouse (CHARLES RIVER LABORATORIES JAPAN, INC.), covered with aseptic gauze and bandaged. The bandage was removed at day 6 from the transplantation, and the graft was observed every day up to rejection. The rejection of the skin graft was determined to be the time point when 90% or more of the epithelium of the graft turned brown due to necrosis. The number of days from the transplantation to the rejection was taken as the survival time of the graft. The compound of the present invention or a pharmaceutically acceptable salt thereof was suspended or dissolved in 0.5% carboxymethylcellulose, and repetitively administered orally at a dose of 0.3-100 mg/kg body weight once a day for 14 days from the day of transplantation. As for the graft survival time, generalized Wilcoxon test analysis was performed using the group administered with vehicle alone as a control, and the multiplicity was adjusted by the Holm's method, wherein p value of 0.05 or below was determined to be significant.

SMILES strings stand for the structures. pIC50: −log10 of the molar value.

One may read the pIC50 as the IC50 on a negative log10 scale, so that one unit is a factor of ten.

`COC(=O)C[C@@H]1N=C(c2ccc(-c3ccc(OC)cc3)cc2)c2c(sc(CO)c2C)-n2c(C)nnc21` [Example 234, Methyl (S)-{2-hydroxymethyl-4-(4′-methoxybiphenyl-4-yl)-3,9-dimethyl-6H-thieno[3,2-f][1,2,4]triazolo[4,3-a][1,4]diazepin-6-yl}acetate]: the negative logarithm of the IC50 (pIC50) in experiment [1] (T-cell, BALB/c mouse T cells, 10 ng/mL PMA and 250 ng/mL anti-CD28 antibody, tritiumthymidine uptake, read-out: CD28-dependent T cell growth suppressive action (IC50)) is 7.01. In addition, in experiment [1] (mouse T cells stimulated with PMA and anti-CD28 antibody), the “CD28-dependent T cell growth suppressive action (in words)” value is on record as “have a CD28-dependent T cell growth suppressive action”. Moreover, in experiment [2], the inhibition in vivo at 3 mg/kg is 53.6%. The “suppressing rate (%) of auricular edema” value in experiment [3] (10 mg/kg oral for 3 days, 24 hr later, P <0.05) came to 35.8%. In addition, the “suppressive action on edema (in words)” value in experiment [3] (10 mg/kg, 24 hr after induction with egg albumin) is recorded as “significant suppressive action on edema”. The compound further showed a median survival time in experiment [4] of 32 days. In addition, the “median survival time of skin graft” value in experiment [5] (30 mg/kg oral once a day for 14 days, P 0.13) stood at 11 days; in experiment [5] (100 mg/kg oral once a day for 14 days, P <0.05), 14 days. The “effect on graft survival time (in words)” value in experiment [5] (100 mg/kg) is recorded as “significantly prolonged the graft survival time”.

Source of the values: US8044042B2, “Thienotriazolodiazepine compound and medicinal use thereof” (Mitsubishi Tanabe Pharma Corporation, priority 2005, dated 2011).
